Patent US8198274B2, “Substituted indolyl and indazolyl derivatives and uses thereof” (Roche Palo Alto LLC, priority 2008, dated 2012)
Where a name gives a salt, the structure may show the parent alone.

Biological target: T1, human serotonin transporter (hSERT) (Homo sapiens, UniProt P31645)
T1 construct: expressed in transfected cells; Tatsumi et al. 1997), membrane preparation
Assay: Screening for human serotonin transporter (hSERT) antagonists, scintillation proximity assay, competition with [3H]-Citalopram
Type: binding
Conditions: membranes of HEK-293 cells, SPA
Description: The screening assay of this example was used to determine the affinity of ligands at the hSERT transporter by competition with [^3H]-Citalopram.
Scintillation Proximity Assay (SPA) works by bringing radioligand within close proximity to the bead's scintillant to stimulate light emission. In this assay, the receptor-containing membranes were pre-coupled to the SPA beads and the binding of the appropriate radioligand to the transporter was measured. The light emission was proportional to the amount of bound radioligand. Unbound radioligand produced no signal as a result of distant proximity to scintillant (lack of energy transfer). […]
Cell membranes were prepared using a membrane preparation buffer of 50 mM TRIS (pH 7.4). […] After a second centrifugation, the pellet was re-homogenized and brought to a final volume determined during the assay. […]
The % inhibition was calculated for each compound tested [(Compound counts per minute (CPM) at maximum concentration-Non-Specific CPM)/Total CPM*100]. […]
[formula] where max=total binding, min=non specific binding, x=concentration (M) of the tested compound and n=Hill slope. The inhibition dissociation constant (Ki) of each compound was determined according to the method of Cheng-Prusoff and then converted into negative logarithm (pKi) of the Ki.

T1 sequence (P31645 whole entry): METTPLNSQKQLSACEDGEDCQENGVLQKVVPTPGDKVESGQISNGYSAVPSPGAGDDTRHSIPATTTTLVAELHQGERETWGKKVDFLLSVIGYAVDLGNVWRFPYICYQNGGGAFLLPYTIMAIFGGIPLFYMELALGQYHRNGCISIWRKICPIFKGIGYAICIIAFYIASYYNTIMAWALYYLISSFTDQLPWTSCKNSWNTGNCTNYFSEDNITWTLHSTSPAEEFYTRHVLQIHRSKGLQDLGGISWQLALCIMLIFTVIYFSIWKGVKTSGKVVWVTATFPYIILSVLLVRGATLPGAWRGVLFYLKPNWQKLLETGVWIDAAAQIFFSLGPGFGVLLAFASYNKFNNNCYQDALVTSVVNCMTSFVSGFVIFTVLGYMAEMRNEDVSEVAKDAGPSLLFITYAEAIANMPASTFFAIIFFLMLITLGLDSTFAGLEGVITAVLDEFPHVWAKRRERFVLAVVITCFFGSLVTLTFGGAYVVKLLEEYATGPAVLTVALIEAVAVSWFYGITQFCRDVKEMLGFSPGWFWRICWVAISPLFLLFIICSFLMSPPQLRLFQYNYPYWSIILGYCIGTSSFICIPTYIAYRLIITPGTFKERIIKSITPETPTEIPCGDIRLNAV

| Ki | Compound |
| --- | --- |
| ~0.1 nM | CNCc1ccccc1Cc1ccc2[nH]cc(C#N)c2c1 [Compound 29, 5-(2-Methylaminomethyl-benzyl)-1H-indole-3-carbonitrile] |

Tested on: not given
Assay: not given
Conditions: not given

| Compound | melting point |
| --- | --- |
| c1cc2c(c(Cc3ccc4[nH]ccc4c3)c1)CNCC2 | 173 to 174 °C |
| CNCCc1ccccc1Cc1ccc2[nH]ccc2c1 | 95 to 97 °C |
| c1cc2c(c(Cc3ccc4[nH]ccc4c3)c1)CCNC2 | 194 to 195 °C |
| CNCc1cc(N2CCOCC2)ccc1Cc1ccc2[nH]ccc2c1 (as salt: fumarate) [Compound 39, [2-(1H-Indol-5-ylmethyl)-5-morpholin-4-yl-benzyl]-methyl-amine] | 135 to 136 °C |
| CNCc1ccccc1Cc1ccc2[nH]c(S(C)(=O)=O)cc2c1 (as salt: fumarate) [Compound 49, [2-(2-Methanesulfonyl-1H-indol-5-ylmethyl)-benzyl]-methyl-amine] | 179 to 180 °C |
| CNCc1ccccc1Cc1ccc2cc[nH]c2c1 [Compound 15, [2-(1H-Indol-6-ylmethyl)-benzyl]-methyl-amine] | 132 °C |
| CNCc1ccccc1Cc1cccc2[nH]ccc12 [Compound 16, [2-(1H-Indol-4-ylmethyl)-benzyl]-methyl-amine] | 111 to 112 °C |
| c1ccc(CN2CCC2)c(Cc2ccc3[nH]ccc3c2)c1 [Compound 18, 5-(2-Azetidin-1-ylmethyl-benzyl)-1H-indole] | 128 to 130 °C |
| OCCNCc1ccccc1Cc1ccc2[nH]ccc2c1 [Compound 21, 2-[2-(1H-Indol-5-ylmethyl)-benzylamino]-ethanol] | 117 to 118 °C |
| CNCc1ccccc1C(O)c1ccc2[nH]ccc2c1 (stereo not drawn) [Compound 24, (1H-Indol-5-yl)-(2-methylaminomethyl-phenyl)-methanol] | 75 to 78 °C |
| c1ccc(Cn2ccnc2)c(Cc2ccc3[nH]ccc3c2)c1 [Compound 25, 5-(2-Imidazol-1-ylmethyl-benzyl)-1H-indole] | 61 to 67 °C |
| CNCc1ccccc1Cc1ccc2[nH]cc(C#N)c2c1 [Compound 29, 5-(2-Methylaminomethyl-benzyl)-1H-indole-3-carbonitrile] | 179 to 180 °C |
| CNCc1cccc(Cc2ccc3[nH]ccc3c2)c1 [Compound 32, [3-(1H-Indol-5-ylmethyl)-benzyl]-methyl-amine] | 153 °C |
| CNCc1cc(NS(C)(=O)=O)ccc1Cc1ccc2[nH]ccc2c1 [Compound 41, N-[4-(1H-Indol-5-ylmethyl)-3-methylaminomethyl-phenyl]-methanesulfonamide] | 125 to 126 °C |
| O=C1CNCCN1c1ccccc1Cc1ccc2[nH]ccc2c1 [Compound 42, 1-[2-(1H-Indol-5-ylmethyl)-phenyl]-piperazin-2-one] | 100 to 102 °C |
| CNCc1scnc1Cc1ccc2[nH]ccc2c1 [Compound 45, [4-(1H-Indol-5-ylmethyl)-thiazol-5-ylmethyl]-methyl-amine] | 152 to 153 °C |
| NCC(O)c1ccccc1Cc1ccc2[nH]ccc2c1 (stereo not drawn) [Compound 47, 2-Amino-1-[2-(1H-indol-5-ylmethyl)-phenyl]-ethanol] | 70 to 72 °C |
| c1ccc(N2CCOCC2)c(Cc2ccc3[nH]ccc3c2)c1 [Compound 48, 5-(2-Morpholin-4-yl-benzyl)-1H-indole] | 189 to 190 °C |

The remaining lines, values ahead:

| melting point | Compound |
| --- | --- |
| 198 to 199 °C | CNCc1ccccc1Cc1ccc2[nH]ccc2c1 (as salt: hydrochloride) [Compound 1, [2-(1H-Indol-5-ylmethyl)-benzyl]-methyl-amine] |
| 162 to 163 °C | CNCc1cc(F)ccc1Cc1ccc2[nH]ccc2c1 [Compound 20, [5-Fluoro-2-(1H-indol-5-ylmethyl)-benzyl]-methyl-amine] |
| 164 to 165 °C | CNCc1cc(Cl)ccc1Cc1ccc2[nH]ccc2c1 [Compound 27, [5-Chloro-2-(1H-indol-5-ylmethyl)-benzyl]-methyl-amine] |
| 157 to 158 °C | CNCc1ccc(OC)cc1Cc1ccc2[nH]ccc2c1 [Compound 33, [2-(1H-Indol-5-ylmethyl)-4-methoxy-benzyl]-methyl-amine] |
| 155 to 156 °C | CNCc1cc(OC)ccc1Cc1ccc2[nH]ccc2c1 [Compound 34, [2-(1H-Indol-5-ylmethyl)-5-methoxy-benzyl]-methyl-amine] |
| 144 to 145 °C | CNCc1cc(C#N)ccc1Cc1ccc2[nH]ccc2c1 [Compound 38, 4-(1H-Indol-5-ylmethyl)-3-methylaminomethyl-benzonitrile] |
| 160 to 163 °C | CNCc1ccc(C#N)cc1Cc1ccc2[nH]ccc2c1 [Compound 43, 3-(1H-Indol-5-ylmethyl)-4-methylaminomethyl-benzonitrile] |
| 97 to 100 °C | CNCc1ccc(C(N)=O)cc1Cc1ccc2[nH]ccc2c1 [Compound 44, 3-(1H-Indol-5-ylmethyl)-4-methylaminomethyl-benzamide] |
